pKi: −log10 of the molar value.
Legend:
[1] = target: T1, PTPRJ (Homo sapiens, UniProt Q12913); parameters: DiFMUP hydrolysis by purified PTPs, fluorescence Ex355/Em460, initial rates over 10 min; Michaelis-Menten and Lineweaver-Burk Km; details: optimized pH for each PTP; substrate
T1 sequence (Q12913 1-1337): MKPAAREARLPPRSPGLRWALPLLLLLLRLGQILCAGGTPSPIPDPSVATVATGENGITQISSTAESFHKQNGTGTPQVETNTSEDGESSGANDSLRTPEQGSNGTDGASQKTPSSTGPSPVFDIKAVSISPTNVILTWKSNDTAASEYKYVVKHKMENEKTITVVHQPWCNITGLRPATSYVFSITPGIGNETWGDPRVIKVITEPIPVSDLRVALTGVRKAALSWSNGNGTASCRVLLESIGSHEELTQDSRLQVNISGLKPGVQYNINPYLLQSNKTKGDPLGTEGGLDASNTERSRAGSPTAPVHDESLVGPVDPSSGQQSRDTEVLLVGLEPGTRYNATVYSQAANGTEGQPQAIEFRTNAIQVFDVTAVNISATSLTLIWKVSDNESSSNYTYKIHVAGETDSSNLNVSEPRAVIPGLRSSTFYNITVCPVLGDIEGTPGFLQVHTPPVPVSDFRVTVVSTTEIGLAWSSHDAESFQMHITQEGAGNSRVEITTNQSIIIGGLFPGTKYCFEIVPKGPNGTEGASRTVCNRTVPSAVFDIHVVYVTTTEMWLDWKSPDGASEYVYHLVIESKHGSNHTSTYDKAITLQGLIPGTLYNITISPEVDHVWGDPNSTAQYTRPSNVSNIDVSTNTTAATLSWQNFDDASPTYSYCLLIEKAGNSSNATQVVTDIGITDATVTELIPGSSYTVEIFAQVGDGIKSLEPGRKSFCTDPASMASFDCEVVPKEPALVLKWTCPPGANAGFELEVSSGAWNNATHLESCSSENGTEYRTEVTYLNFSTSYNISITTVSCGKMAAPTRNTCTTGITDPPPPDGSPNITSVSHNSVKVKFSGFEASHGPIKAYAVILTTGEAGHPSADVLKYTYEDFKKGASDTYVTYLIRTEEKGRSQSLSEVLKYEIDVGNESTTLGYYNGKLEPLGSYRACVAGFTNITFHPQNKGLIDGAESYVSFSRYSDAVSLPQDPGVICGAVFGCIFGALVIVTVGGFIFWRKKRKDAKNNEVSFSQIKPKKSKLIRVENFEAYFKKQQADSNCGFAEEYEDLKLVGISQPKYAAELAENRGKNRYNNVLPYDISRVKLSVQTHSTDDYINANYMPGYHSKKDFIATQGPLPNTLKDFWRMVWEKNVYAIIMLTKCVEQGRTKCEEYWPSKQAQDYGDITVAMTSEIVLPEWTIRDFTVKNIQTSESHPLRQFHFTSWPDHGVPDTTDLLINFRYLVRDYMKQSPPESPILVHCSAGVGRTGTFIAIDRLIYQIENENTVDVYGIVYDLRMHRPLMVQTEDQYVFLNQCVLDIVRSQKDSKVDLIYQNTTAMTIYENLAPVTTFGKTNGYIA
Method: (§1) The enzymatic activity of each PTP was evaluated using 6,8-difluoro-4-methylumbelliferyl phosphate (DiFMUP) as the surrogate substrate. To reach within the range of the initial rate (v0) during the measurement for 10 min, the pH and concentration of each PTP were optimized and are listed in Table S3. To determine the Km values, each PTP with optimized concentration was added to the reaction buffer (20 mM Bis-Tris at pH 6.0 or Tris at pH 7.0 and 8.0, 150 mM NaCl, 2.5 mM dithiothreitol (DTT), 0.01% Triton X-100) containing various concentrations of DiFMUP to obtain a final volume of 100 μL in a 96-well plate. Fluorescence intensities were measured once every minute for a complete 10 min duration using a Victor™ X4 Multilabel Plate Reader (Perkin Elmer, Waltham, MA, USA) at excitation/emission = 355 nm/460 nm. The initial rates of the reaction were determined using a previously described procedure for calculating the amount of product formation. To screen a library of 1033 natural products (Chengdu Biopurify Phytochemicals Ltd., Chengdu, China) against 20 PTPs, each PTP with an optimized concentration was added to the reaction buffer with an optimized pH containing DiFMUP (2 × Km for each PTP) after adding each compound (20 μM). […] The Hill coefficient (nH), the degree of cooperativity, was calculated according to a previously published method. […]

[2] = target: T2, PTPN1 (Homo sapiens, UniProt P18031); parameters: DiFMUP hydrolysis by purified PTPs, fluorescence Ex355/Em460, initial rates over 10 min; Michaelis-Menten and Lineweaver-Burk Km; details: optimized pH for each PTP; substrate
T2 sequence (P18031 1-435): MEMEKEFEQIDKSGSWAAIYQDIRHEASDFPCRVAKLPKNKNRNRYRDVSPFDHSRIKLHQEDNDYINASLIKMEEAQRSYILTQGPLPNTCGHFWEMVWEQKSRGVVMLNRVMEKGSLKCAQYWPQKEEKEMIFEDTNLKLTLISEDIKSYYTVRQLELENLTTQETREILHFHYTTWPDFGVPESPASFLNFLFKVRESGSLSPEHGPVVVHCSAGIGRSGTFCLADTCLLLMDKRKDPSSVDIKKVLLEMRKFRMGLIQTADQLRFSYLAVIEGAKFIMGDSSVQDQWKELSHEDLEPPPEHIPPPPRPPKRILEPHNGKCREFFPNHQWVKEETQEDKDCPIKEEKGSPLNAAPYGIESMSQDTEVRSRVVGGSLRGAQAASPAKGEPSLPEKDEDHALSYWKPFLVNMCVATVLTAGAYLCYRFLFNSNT
Method: as §1

[3] = target: T3, PTPN6 (Homo sapiens, UniProt P29350); assay: DiFMUP fluorescence phosphatase assay; Dixon and Lineweaver-Burk plots (IC50 […]); assay type: biochemical
[4] = target: T3, PTPN6; assay: DiFMUP phosphatase screen, single dose […] (% inhibition, hit threshold […]); assay type: biochemical; details: read-out: % inhibition at 20 μM

T3 sequence (P29350 whole entry): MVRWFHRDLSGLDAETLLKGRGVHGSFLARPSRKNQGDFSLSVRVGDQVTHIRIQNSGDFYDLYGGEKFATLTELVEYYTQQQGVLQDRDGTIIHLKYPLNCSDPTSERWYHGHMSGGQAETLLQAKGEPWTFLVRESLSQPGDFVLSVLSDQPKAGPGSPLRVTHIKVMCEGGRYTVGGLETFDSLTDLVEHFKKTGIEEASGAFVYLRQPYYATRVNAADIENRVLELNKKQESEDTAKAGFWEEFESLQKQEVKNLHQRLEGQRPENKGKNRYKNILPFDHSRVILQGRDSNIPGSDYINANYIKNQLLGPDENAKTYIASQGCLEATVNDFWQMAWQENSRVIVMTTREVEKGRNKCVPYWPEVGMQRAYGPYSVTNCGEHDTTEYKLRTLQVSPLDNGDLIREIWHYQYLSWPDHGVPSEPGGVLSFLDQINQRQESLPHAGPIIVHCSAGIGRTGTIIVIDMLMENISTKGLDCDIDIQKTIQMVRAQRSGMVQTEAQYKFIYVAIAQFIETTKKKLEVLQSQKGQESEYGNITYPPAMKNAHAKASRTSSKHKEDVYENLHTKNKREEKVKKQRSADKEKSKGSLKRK

Cc1cc(=O)oc2c(F)c(OP(=O)(O)O)c(F)cc12 [6,8-difluoro-4-methylumbelliferyl phosphate]
Km [1]: 66.4 µM | Km [2]: 21.6 µM

CCOC(=O)c1cc(O)c(O)c(O)c1 [compound 271, ethyl gallate]
pKi [3]: 5.47

O=C1C=CC(=O)c2c(O)cccc21 [compound 362, juglone]
inhibition at 20 µM [4]: > 60%

COc1ccc(-c2oc3c(CC=C(C)C)c(O[C@@H]4O[C@H](CO)[C@@H](O)[C@H](O)[C@H]4O)cc(O)c3c(=O)c2O)cc1 [compound 335, icariside I]
inhibition at 20 µM [4]: > 60%

CCCCCCCCCCCCCCCCC(C(=O)O)C(O)(CC(=O)O)C(=O)O (stereo not shown) [compound 891, agaric acid]
inhibition at 20 µM [4]: > 60%

C[C@@H]1O[C@@H](Oc2c(-c3cc(O)c(O)c(O)c3)oc3cc(O)cc(O)c3c2=O)[C@H](O)[C@H](O)[C@H]1O [compound 429, myricetrin]
inhibition at 20 µM [4]: > 60%

Source: PMC9105384, “Ethyl Gallate Dual-Targeting PTPN6 and PPARγ Shows Anti-Diabetic and Anti-Obese Effects” (International Journal of Molecular Sciences, 2022)
